Key:
Assay in all cases: Human cancer cell line panel, proliferation (sulforhodamine B)
Format in all cases: cell-based
[1] = tested on: colon cancer cell line KM-12; details: KM-12, 2 days of cultivation; read-out: 50% inhibitory concentration, proliferation
[2] = tested on: kidney cancer cell line ACHN; details: 2 days of cultivation, read-out: 50% inhibitory concentration, proliferation
[3] = tested on: ovarian cancer cell line SK-OV-3; details: SK-OV-3, 2 days of cultivation; read-out: 50% inhibitory concentration, proliferation

Measured: IC50

CC(=O)CSCCCCC[C@@H]1NC(=O)[C@H]2CCCN2C(=O)[C@H](Cc2ccccc2)NC(=O)C(C)(C)NC1=O [Ky-72, cyclo(-L-Am7(acetonyl)-Aib-L-Phe-D-Pro-)]
≤ 100 nM: all assays above

From US8158587B2, “Compound having histone deacetylase-inhibiting activity, and pharmaceutical composition comprising the compound as an active ingredient” (Kyushu Institute of Technology, priority 2006, dated 2012)
